Experimental data from PubChem BioAssay AID1918944 (Molecular Pharmacology Branch, DTP, NCI, 2023).
Values joined by “and” are separate entries in the source; they are usually repeats but may differ in a detail not shown here. Identical values can stand only once.

System: 786-0 complex spheroid viability
Assay: Anticancer human tumor 786-0 cell line growth inhibition;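 note: spheroids exposed to agents for seven days before readout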
Conditions: for viability, T/C: stronger effect = lower value
Summary of the method: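 Multicellular complex spheroids of tumor cells with human endothelial cells (HUVEC) and mesenchymal stem cells; the LSD1 inhibitor iadademstat was combined with standard-of-care or investigational agents. Top concentration at or near clinical Cmax, half-log dilutions; final DMSO ≤0.25%.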

[1] = curve of first compound, second compound 0.1 µM
[2] = curve of first compound, second compound 0.316 µM
[3] = curve of first compound, second compound 1 µM
[4] = curve of first compound, second compound 3.16 µM
[5] = curve of first compound, second compound 10 µM
[6] = second compound 0.1 µM, first compound 0.00316 µM
[7] = second compound 0.1 µM, first compound 0.01 µM
[8] = second compound 0.1 µM, first compound 0.0316 µM
[9] = second compound 0.1 µM, first compound 0.1 µM
[10] = second compound 0.1 µM, first compound 0.316 µM
[11] = second compound 0.1 µM, first compound 1 µM
[12] = second compound 0.316 µM, first compound 0.00316 µM
[13] = second compound 0.316 µM, first compound 0.01 µM
[14] = second compound 0.316 µM, first compound 0.0316 µM
[15] = second compound 0.316 µM, first compound 0.1 µM
[16] = second compound 0.316 µM, first compound 0.316 µM
[17] = second compound 0.316 µM, first compound 1 µM
[18] = second compound 1 µM, first compound 0.00316 µM
[19] = second compound 1 µM, first compound 0.01 µM
[20] = second compound 1 µM, first compound 0.0316 µM
[21] = second compound 1 µM, first compound 0.1 µM
[22] = second compound 1 µM, first compound 0.316 µM
[23] = second compound 1 µM, first compound 1 µM
[24] = second compound 3.16 µM, first compound 0.00316 µM
[25] = second compound 3.16 µM, first compound 0.01 µM
[26] = second compound 3.16 µM, first compound 0.0316 µM
[27] = second compound 3.16 µM, first compound 0.1 µM
[28] = second compound 3.16 µM, first compound 0.316 µM
[29] = second compound 3.16 µM, first compound 1 µM
[30] = second compound 10 µM, first compound 0.00316 µM
[31] = second compound 10 µM, first compound 0.01 µM
[32] = second compound 10 µM, first compound 0.0316 µM
[33] = second compound 10 µM, first compound 0.1 µM
[34] = second compound 10 µM, first compound 0.316 µM
[35] = second compound 10 µM, first compound 1 µM
[36] = second compound 0.1 µM, first compound 0.000316 µM
[37] = second compound 0.1 µM, first compound 0.001 µM
[38] = second compound 0.316 µM, first compound 0.000316 µM
[39] = second compound 0.316 µM, first compound 0.001 µM
[40] = second compound 1 µM, first compound 0.000316 µM
[41] = second compound 1 µM, first compound 0.001 µM
[42] = second compound 3.16 µM, first compound 0.000316 µM
[43] = second compound 3.16 µM, first compound 0.001 µM
[44] = second compound 10 µM, first compound 0.000316 µM
[45] = second compound 10 µM, first compound 0.001 µM

Row | SMILES | IC50 [1] | IC50 [2] | IC50 [3] | IC50 [4] | IC50 [5] | viability, T/C [6] | viability, T/C [7] | viability, T/C [8] | viability, T/C [9] | viability, T/C [12] | viability, T/C [13] | viability, T/C [14] | viability, T/C [15] | viability, T/C [18] | viability, T/C [20] | viability, T/C [21] | viability, T/C [26] | viability, T/C [27] | viability, T/C [32] | viability, T/C [33] | further results
1 | COc1cc(Nc2ncc3c(n2)-c2ccc(Cl)cc2C(c2c(F)cccc2OC)=NC3)ccc1C(=O)O + NC1CCC(NC2CC2c2ccccc2)CC1 | 609 nM | 480 nM | 451 nM | 233 nM | 117 nM | 114% | 97.2% | 80.7% | 68.8% | 116% | 93.2% | 73.2% | 65.9% | 108% | 71.8% | 66.9% | 60.3% | 59.1% | 53.2% | 56.4% | viability, T/C [10]: 57.1%; viability, T/C [11]: 44.5%; viability, T/C [16]: 54.1%; viability, T/C [17]: 43.7%; viability, T/C [19]: 91%; viability, T/C [22]: 53.9%; viability, T/C [23]: 42.5%; viability, T/C [24]: 102%; viability, T/C [25]: 82%; viability, T/C [28]: 51%; viability, T/C [29]: 40.6%; viability, T/C [30]: 80.2%; viability, T/C [31]: 64.9%; viability, T/C [34]: 46.4%; viability, T/C [35]: 39.7%
2 | CC(C)CC(NC(=O)CNC(=O)c1cc(Cl)ccc1Cl)B1OC(=O)CC(CC(=O)O)(C(=O)O)O1 (centres undefined) + NC1CC1c1ccc(-c2cccc(O)c2)cc1 | 14.1 nM | 14.8 nM | 14.7 nM | 13.3 nM | 9.46 nM | 93.2% | 55.9% | 33.5% | 16.6% | 97.7% | 59.3% | 30.5% | 17.1% | 90.5% | 33.2% | 17.4% | 31.4% | 15.6% | 27.4% | 12.4% | viability, T/C [36]: 95.1%; viability, T/C [37]: 106%; viability, T/C [38]: 111%; viability, T/C [39]: 106%; viability, T/C [40]: 101%; viability, T/C [41]: 102%; viability, T/C [19]: 57.6%; viability, T/C [42]: 88.6%; viability, T/C [43]: 100%; viability, T/C [24]: 88.1%; viability, T/C [25]: 54.6%; viability, T/C [44]: 88%; viability, T/C [45]: 89.5%; viability, T/C [30]: 84%; viability, T/C [31]: 45.4%
3 | COc1cc(Nc2ncc3c(n2)-c2ccc(Cl)cc2C(c2c(F)cccc2OC)=NC3)ccc1C(=O)O + NC1CC1c1ccc(-c2cccc(O)c2)cc1 | 584 nM | 638 nM | 431 nM | 588 nM | 955 nM | 96.3% | 86.8% | 69% | 65% | 105% | 94.5% | 77% | 67.1% | 93.3% | 70.3% | 66.9% | 68.5% | 66.1% | 67.9% | 72.2% | viability, T/C [10]: 55.5%; viability, T/C [11]: 45.4%; viability, T/C [16]: 55.4%; viability, T/C [17]: 46.4%; viability, T/C [19]: 83.6%; viability, T/C [22]: 52%; viability, T/C [23]: 42.2%; viability, T/C [24]: 89.7%; viability, T/C [25]: 86.1%; viability, T/C [28]: 56.9%; viability, T/C [29]: 44.7%; viability, T/C [30]: 84.6%; viability, T/C [31]: 77.7%; viability, T/C [34]: 56.7%; viability, T/C [35]: 49.4%
4 | CC[C@@]1(O)C(=O)OCc2c1cc1n(c2=O)Cc2cc3c(CN(C)C)c(O)ccc3nc2-1 + NC1CCC(NC2CC2c2ccccc2)CC1 | 5.11 nM | 5.13 nM | 5.2 nM | 4.39 nM | 3.01 nM | 77.3% | 11.8% | 5.31% | 3.53% | 78.3% | 10.8% | 5.38% | 3.62% | 80% | 5.66% | 3.63% | 6.41% | 2.85% | 5.01% | 3.36% | viability, T/C [36]: 114%; viability, T/C [37]: 113%; viability, T/C [38]: 111%; viability, T/C [39]: 105%; viability, T/C [40]: 115%; viability, T/C [41]: 105%; viability, T/C [19]: 10.3%; viability, T/C [42]: 101%; viability, T/C [43]: 95.2%; viability, T/C [24]: 65.2%; viability, T/C [25]: 12.4%; viability, T/C [44]: 84%; viability, T/C [45]: 71.7%; viability, T/C [30]: 50.3%; viability, T/C [31]: 6.62%
5 | CC1COCCN1c1cc(C2(S(C)(=N)=O)CC2)nc(-c2ccnc3[nH]ccc23)n1 (centres undefined) + NC1CCC(NC2CC2c2ccccc2)CC1 | 886 nM | 792 nM | 795 nM | 604 nM | 294 nM |  |  | 118% | 114% |  |  | 125% | 116% |  | 112% | 116% | 109% | 103% | 94.1% | 77.5% | viability, T/C [10]: 104%; viability, T/C [11]: 43%; viability, T/C (second compound 0.1 µM, first compound 3.16 µM): 15.3%; viability, T/C (second compound 0.1 µM, first compound 10 µM): 6.76%; viability, T/C [16]: 93.4%; viability, T/C [17]: 38.1%; viability, T/C (second compound 0.316 µM, first compound 3.16 µM): 14.7%; viability, T/C (second compound 0.316 µM, first compound 10 µM): 6.62%; viability, T/C [22]: 89.2%; viability, T/C [23]: 40%; viability, T/C (second compound 1 µM, first compound 3.16 µM): 13%; viability, T/C (second compound 1 µM, first compound 10 µM): 4.93%; viability, T/C [28]: 72.8%; viability, T/C [29]: 32.3%; viability, T/C (second compound 3.16 µM, first compound 3.16 µM): 9.43%; viability, T/C (second compound 3.16 µM, first compound 10 µM): 5.16%; viability, T/C [34]: 48.3%; viability, T/C [35]: 20.8%; viability, T/C (second compound 10 µM, first compound 3.16 µM): 5.55%; viability, T/C (second compound 10 µM, first compound 10 µM): 2.91%
6 | Nc1ncn(C2CC(O)C(CO)O2)c(=O)n1 (centres undefined) + NC1CC1c1ccc(-c2cccc(O)c2)cc1 | > 1000 nM | > 1000 nM | > 1000 nM | > 1000 nM | > 1000 nM | 119% | 122% | 107% | 97% | 125% | 113% | 107% | 96.5% | 122% | 107% | 96.1% | 95.7% | 94.8% | 97.1% | 93% | viability, T/C [10]: 99.1%; viability, T/C [11]: 78.4%; viability, T/C [16]: 88.8%; viability, T/C [17]: 82.3%; viability, T/C [19]: 119%; viability, T/C [22]: 90.9%; viability, T/C [23]: 82.5%; viability, T/C [24]: 113%; viability, T/C [25]: 115%; viability, T/C [28]: 84%; viability, T/C [29]: 75.6%; viability, T/C [30]: 108%; viability, T/C [31]: 102%; viability, T/C [34]: 78.3%; viability, T/C [35]: 72.9%
7 | CC(C)CC(NC(=O)C(Cc1ccccc1)NC(=O)c1cnccn1)B(O)O (centres undefined) |  |  |  |  |  |  |  |  |  |  |  |  |  |  |  |  |  |  |  |  | viability, T/C (compound 0.000316 µM): 100% and 106%; viability, T/C (compound 0.001 µM): 107% and 108%; viability, T/C (compound 0.00316 µM): 32.1% and 53.2%; viability, T/C (compound 0.01 µM): 2.29% and 6.77%; viability, T/C (compound 0.0316 µM): 0.17% and 1.21%; viability, T/C (compound 0.1 µM): 0.2% and 0.37%; IC50 (curve of compound): 2.38 nM and 3.45 nM
8 | Nc1ccccc1NC(=O)c1ccc(CNC(=O)OCc2cccnc2)cc1 |  |  |  |  |  |  |  |  |  |  |  |  |  |  |  |  |  |  |  |  | viability, T/C (compound 0.00949 µM): 98.3% and 104%; viability, T/C (compound 0.03 µM): 103% and 113%; viability, T/C (compound 0.0949 µM): 102% and 108%; viability, T/C (compound 0.3 µM): 93.9% and 93.5%; viability, T/C (compound 0.949 µM): 68% and 73.5%; viability, T/C (compound 3 µM): 14.8% and 23%; IC50 (curve of compound): 1400 nM and 1610 nM
